According to ChEMBL document CHEMBL4184262, “Iodine mediated pyrazolo-quinoline derivatives as potent anti-proliferative agents” (Bioorg Med Chem Lett, 2018):

Legend:
Assay type in all cases: functional, cell-based
A549 = experiment: Antiproliferative activity against human A549 cells incubated for 24 hrs by MTT assay; conditions: A549, 24 h
HeLa = experiment: Antiproliferative activity against human HeLa cells incubated for 24 hrs by MTT assay
SK-N-SH = experiment: Antiproliferative activity against human SK-N-SH cells incubated for 24 hrs by MTT assay
HepG2 = experiment: Antiproliferative activity against human HepG2 cells incubated for 24 hrs by MTT assay; conditions: HepG2, 24 h
MCF7 = experiment: Antiproliferative activity against human MCF7 cells incubated for 24 hrs by MTT assay; conditions: MCF7, 24 h

`COc1ccc(-c2nc3ccccc3c3c2c(-c2ccc(Br)cc2)nn3-c2ccccc2)c(OC)c1` gave an IC50 (A549) of 41.1 µM, an IC50 (HeLa) of 12 µM and an IC50 (SK-N-SH) of 3.76 µM. The IC50 (HepG2) was 42.8 µM and the IC50 (MCF7) was 10.4 µM.
`Brc1ccc(-c2nn(-c3ccccc3)c3c2c(-c2ccccc2)nc2ccccc23)cc1` gave an IC50 (A549) of 4.92 µM, an IC50 (HeLa) of 14.3 µM and an IC50 (SK-N-SH) of 5.99 µM. It also gave an IC50 (HepG2) of 14.6 µM and an IC50 (MCF7) of 12.3 µM.
For `Clc1ccc(-c2nc3ccccc3c3c2c(-c2ccccc2)nn3-c2ccccc2)cc1`, the IC50 (A549) was 8.09 µM, the IC50 (HeLa) was 5.62 µM and the IC50 (SK-N-SH) was 6.65 µM. For the same compound, the IC50 (HepG2) was 10.8 µM and the IC50 (MCF7) was 11.1 µM.
`Clc1ccc(-c2nc3ccccc3c3c2c(-c2ccc(Br)cc2)nn3-c2ccccc2)cc1` gave an IC50 (A549) of 8.79 µM, an IC50 (HeLa) of 9.52 µM and an IC50 (SK-N-SH) of 5.47 µM. The IC50 (HepG2) was 20.7 µM and the IC50 (MCF7) was 38 µM.
Compound `Clc1ccc(-c2nc3ccccc3c3c2c(-c2ccccc2)nn3-c2ccccc2)c(Cl)c1` has an IC50 (A549) of 8.17 µM, an IC50 (HeLa) of 5.24 µM and an IC50 (SK-N-SH) of 11.5 µM. It also gave an IC50 (HepG2) of 83.9 µM and an IC50 (MCF7) of 77.8 µM.
Work on `COc1ccccc1-c1nc2ccccc2c2c1c(-c1ccc(Br)cc1)nn2-c1ccccc1` yielded an IC50 (A549) of 8.45 µM, an IC50 (HeLa) of 5.29 µM and an IC50 (SK-N-SH) of 5.54 µM. The IC50 (HepG2) was 30.3 µM and the IC50 (MCF7) was 123 µM.
In the case of `O=[N+]([O-])c1cccc(-c2nc3ccccc3c3c2c(-c2ccc(Br)cc2)nn3-c2ccccc2)c1`, the IC50 (A549) is reported as 15.6 µM, the IC50 (HeLa) is reported as 6.49 µM and the IC50 (SK-N-SH) is reported as 3.87 µM. The IC50 (HepG2) was 19.3 µM and the IC50 (MCF7) was 20.3 µM.
`Brc1ccc(-c2nn(-c3ccccc3)c3c2c(-c2cccc4ccccc24)nc2ccccc23)cc1` gave an IC50 (A549) of 8.1 µM, an IC50 (HeLa) of 11.8 µM and an IC50 (SK-N-SH) of 5.54 µM. It also gave an IC50 (HepG2) of 24.4 µM and an IC50 (MCF7) of 18.4 µM.
In the case of `Cc1ccc(-c2nc3ccccc3c3c2c(-c2ccccc2)nn3-c2ccccc2)cc1`, the IC50 (A549) is reported as 56.8 µM, the IC50 (HeLa) is reported as 7.38 µM and the IC50 (SK-N-SH) is reported as 5.02 µM. The IC50 (HepG2) was 32.7 µM and the IC50 (MCF7) was 24.2 µM.
`Cc1ccc(-c2nc3ccccc3c3c2c(-c2ccc(Br)cc2)nn3-c2ccccc2)cc1` was tested, and the IC50 (A549) was 2.43 µM, the IC50 (HeLa) was 8.3 µM and the IC50 (SK-N-SH) was 4.54 µM. For the same compound, the IC50 (HepG2) was 26 µM and the IC50 (MCF7) was 19.6 µM.
For `COc1ccccc1-c1nc2ccccc2c2c1c(-c1ccccc1)nn2-c1ccccc1`, the IC50 (A549) was 25.8 µM, the IC50 (HeLa) was 7.81 µM and the IC50 (SK-N-SH) was 5.39 µM. For the same compound, the IC50 (HepG2) was 18.8 µM and the IC50 (MCF7) was 15.4 µM.
Work on `Brc1ccc(-c2nn(-c3ccccc3)c3c2c(-c2ccco2)nc2ccccc23)cc1` yielded an IC50 (A549) of 8.81 µM, an IC50 (HeLa) of 4.89 µM and an IC50 (SK-N-SH) of 3.83 µM. It also gave an IC50 (HepG2) of 30.4 µM and an IC50 (MCF7) of 14 µM.
`c1ccc(-c2nc3ccccc3c3c2c(-c2ccccc2)nn3-c2ccccc2)cc1` was tested, and the IC50 (A549) was 16.5 µM, the IC50 (HeLa) was 24.6 µM and the IC50 (SK-N-SH) was 5.24 µM. It also gave an IC50 (HepG2) of 18.6 µM and an IC50 (MCF7) of 32.6 µM.
Compound `Clc1ccc(-c2nc3ccccc3c3c2c(-c2ccc(Br)cc2)nn3-c2ccccc2)c(Cl)c1` has an IC50 (A549) of 5.96 µM, an IC50 (HeLa) of 81.2 µM and an IC50 (SK-N-SH) of 7.13 µM. The IC50 (HepG2) was 180 µM and the IC50 (MCF7) was 6.01 µM.
For `Brc1ccc(-c2nn(-c3ccccc3)c3c2c(-c2cccs2)nc2ccccc23)cc1`, the IC50 (A549) was 9.34 µM, the IC50 (HeLa) was 23.4 µM and the IC50 (SK-N-SH) was 5.24 µM. It also gave an IC50 (HepG2) of 35 µM and an IC50 (MCF7) of 42.4 µM.
With `COc1cccc2c1C(=O)c1c(O)c3c(c(O)c1C2=O)C[C@@](O)(C(=O)CO)C[C@@H]3O[C@H]1C[C@H](N)[C@H](O)[C@H](C)O1` [DOXORUBICIN] the IC50 (A549) was 0.223 µM, the IC50 (SK-N-SH) was 2.42 µM and the IC50 (HepG2) was 6.11 µM.
